Source: PubChem BioAssay (NCI)
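Briefly, cells in 96-well plates were exposed to five compound concentrations for 48 h, and endpoints were estimated by linear interpolation. The concentration for full growth arrest is given as TGI.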

How the values were obtained:
Test in all cases: NCI anticancer screen, dose series, 48 h
MDA-MB-435 = test system: MDA-MB-435
SW-620 colon = test system: SW-620 colon
RPMI-8226 leukemia = test system: RPMI-8226 leukemia
HL-60(TB) leukemia = test system: HL-60(TB) leukemia
HCT-15 colon = test system: HCT-15 colon
SK-MEL-2 melanoma = test system: SK-MEL-2 melanoma
MOLT-4 leukemia = test system: MOLT-4 leukemia
SF-295 CNS = test system: SF-295 CNS
MALME-3M melanoma = test system: MALME-3M melanoma
MDA-N = test system: MDA-N
T-47D breast = test system: T-47D breast
SR leukemia = test system: SR leukemia
UACC-62 melanoma = test system: UACC-62 melanoma
MCF7 breast = test system: MCF7 breast
NCI-H460 lung = test system: NCI-H460 lung
UO-31 renal = test system: UO-31 renal
A498 renal = test system: A498 renal
HOP-62 NSCLC = test system: HOP-62 NSCLC
M14 melanoma = test system: M14 melanoma
RXF 393 renal = test system: RXF 393 renal

Row | Structure (SMILES) | TGI (MDA-MB-435) [µM] | TGI (SW-620 colon) [µM] | TGI (RPMI-8226 leukemia) [µM] | TGI (HL-60(TB) leukemia) [µM] | TGI (HCT-15 colon) [µM] | TGI (SK-MEL-2 melanoma) [µM] | TGI (MOLT-4 leukemia) [µM] | TGI (SF-295 CNS) [µM] | TGI (MALME-3M melanoma) [µM] | TGI (MDA-N) [µM] | TGI (T-47D breast) [µM] | TGI (SR leukemia) [µM] | TGI (UACC-62 melanoma) [µM] | TGI (MCF7 breast) [µM] | TGI (NCI-H460 lung) [µM] | TGI (UO-31 renal) [µM] | TGI (A498 renal) [µM] | TGI (HOP-62 NSCLC) [µM] | TGI (M14 melanoma) [µM] | TGI (RXF 393 renal) [µM]
1 | Cc1nc2ccc(S(=O)(=O)NS(=O)(=O)c3ccc(-c4ccccc4)cc3)cc2c(=O)n1NS(=O)(=O)c1ccc(-c2ccccc2)cc1 | > 100 | > 100 | > 100 | > 100 | > 100 | > 100 | > 100 | > 100 | > 100 | > 100 | > 100 | > 100 | > 100 | > 100 | > 100 | > 100 | > 100 | > 100 | > 100 | > 100
2 | CC12CCCCC1=C(F)C(F)(F)S2 (stereo not given) | > 86.6 | > 73.7 | 37.7 | 15.3 | 76.7 | > 100 | 36 | > 71.4 | 58.6 | > 46.4 | 74.5 | 28 | > 100 | > 79.6 | > 100 | 24.4 | > 100 | > 100 | > 83.6 | > 51.8
3 | Cc1ccc(S(=O)(=O)CNC(=O)C(O)(O)C(F)(F)F)cc1 | > 100 | > 100 | > 100 | > 100 | > 100 | > 100 | > 100 | > 100 | > 100 | > 100 | > 100 | > 100 | > 100 | > 100 | > 100 | > 100 | > 100 | > 100 | > 100 | > 100
